Values of other authors as cited in patent publication US20240408179A1, “ORAL DELIVERY OF THERAPEUTIC AGENTS” (GUANGZHOU DAZHOU BIOMEDICINE LTD., priority 2021, published 2024).

Assays:
[1] = test system: T2D patients with high risk of cardiovascular disease events; conditions: empagliflozin group versus placebo group
[2] = humans, co-formulated with SNAC

OC[C@H]1O[C@@H](c2ccc(Cl)c(Cc3ccc(O[C@H]4CCOC4)cc3)c2)[C@H](O)[C@@H](O)[C@@H]1O [empagliflozin]
relative risk reduction in death from cardiovascular causes [1]: 38%

semaglutide
oral bioavailability (BA %) [2]: 0.5-1%
